Test system: lung fibrin deposition
Test: Lung fibrin deposition in the anaesthetized rat (endotoxin + batroxobin, 125I-fibrinogen)
Type: in vivo, rat (Sprague Dawley)
Method: Batroxobin No. 520 CRY (American Diagnostica Inc., Greenwich, Conn., USA) was kept at 8° C. both while lyophilized and when dissolved in saline to a concentration of 10 BU/ml. It was used within 5 days in the experiments. The remaining drug was freezed and kept at […] for a maximum of 30 days.
Endotoxin L-3129 (Sigma, St. Louis, Mo., USA) was dissolved in saline to a concentration of 50 μg/ml. A fresh solution was prepared for each experiment.
^125I-labelled human fibrinogen (Amersham, Little Chalfont, Buck., UK) was stored at 8° C. while lyophilized. After dissolving in saline/aq.dest. (80/20 v/v) to a stock solution of approx. 0.8 MBq/ml (20 μCi/ml) it was divided into aliquots (one for each experiment), quickly freezed and stored at −20° C. It was used in the experiments within 14 days after the production date.
The thrombin inhibitor inogatran was dissolved in 40% (w/w) cyclodextrin (HPβCD) to a concentration of 5 mg/ml and stored at −20° C. It was further diluted with 40% cyclo-dextrin before use in the different experiments. In the studies the drug was administered subcutaneously.
The thrombin inhibitor melagatran was dissolved in saline.
The CPU inhibitors […] and Compound A were dissolved in deoxygenated saline. The saline was deoxygenated by ultrasonication for 20 min and subsequently by passing nitrogen for another 20 min. The solutions were always fresh-made for each experiment. The CPU inhibitor was administered to the rats as an i.v. infusion for 5 min.
Male rats of the Sprague Dawley strain (Charles River, Sweden) with a body weight of 325–425 g were used in these experiments. The animals were allowed to accommodate at AstraZeneca R&D, Mölndal, Sweden for 1 week before use.
Anaesthesia was induced and maintained by Inactin 100 mg/kg i.p.
Two catheters were inserted in the left jugular vein, one for administration of ^125I-fibrinogen and batroxobin and the other for administration of endotoxin and CPU inhibitor or their corresponding vehicles. A third catheter was inserted in the carotid artery for blood sampling and measurement of the mean arterial blood pressure and heart rate. To avoid blood clots in the arterial catheter a slow saline infusion (approx. 1.0 ml/kg*h) was maintained throughout the experiment. The rats were tracheotomized in order to facilitate spontaneous breathing. The body temperature was monitored and maintained at 38° C. by external heating.
The animals were given an i.v. injection of endotoxin (50 μg/kg) at the start of the experiment. Two hours later the thrombin inhibitor or its vehicle was injected subcutaneously and another 15 min later ^125I-fibrinogen (0.04 MBq) was given as an i.v. injection. An infusion lasting for five minutes of the CPU-inhibitor or its vehicle was started after 5 min. After 5 min, batroxobin (10 BU/kg) was given as an i.v. bolus injection for one minute.
Blood samples for determination of ^125I-content were taken in all experiments just before and 5, 20 and 30 min after the batroxobin administration. At the end of the experiment the lungs were excised, the tissue was gently washed in saline and thereafter blotted and weighed. The ^125I-content in the tissue and blood samples was determined, using a Wallac 1282 Compugamma counter. The ^125I-concentration in plasma and in the lungs was expressed as a percentage of the radioactivity in the reference arterial blood sample taken just prior to the batroxobin injection.
For each of the four different dose combinations, only CPU inhibitor, only thrombin inhibitor, thrombin inhibitor together with CPU inhibitor at 0.2 and 0.28 μmol/kg respectively, separate E-max models were fitted. The models were fitted on a logarithmic scale giving estimates of the median effective dose, i.e., the dose where half of the population has 50% effect.

Q: Which results are given for N=C(N)c1ccc(CNC(=O)[C@@H]2CCN2C(=O)[C@H](NCC(=O)O)C2CCCCC2)cc1 [melagatran, HOOC—CH2—(R)Cgl-Aze-Pab-H]?
A: Remaining fibrin after treatment (Table II, thrombin inhibitor alone, 0.23 μmol/kg s.c.): 97 ± 12.4 n = 6%; Remaining fibrin after treatment (Table II, thrombin inhibitor alone, 0.35 μmol/kg): 77 ± 22.4 n = 4%; Remaining fibrin after treatment (Table II, thrombin inhibitor alone, 0.58 μmol/kg): 62 ± 17.0 n = 2%; Remaining fibrin after treatment (Table II, thrombin inhibitor alone, 1.75 μmol/kg): 31 ± 13.3 n = 4%; Remaining fibrin after treatment (Table II, thrombin inhibitor alone, 3.5 μmol/kg): 55 ± 21.7 n = 4%; Remaining fibrin after treatment (Table III, thrombin inhibitor alone, 0.18 μmol/kg): 110 ± 15.2 n = 3%; Remaining fibrin after treatment (Table III, thrombin inhibitor alone, 0.23 μmol/kg): 98 ± 11.5 n = 7%; Remaining fibrin after treatment (Table III, thrombin inhibitor alone, 0.30 μmol/kg): 87 ± 27.6 n = 3%; Remaining fibrin after treatment (Table III, thrombin inhibitor alone, 0.35 μmol/kg): 77 ± 22.4 n = 4%

Q: N=C(N)NCCSCC(CS)C(=O)O (racemic) [MERGETPA, DL-2-mercaptomethyl-3-guanidinoethylthiopropanoic acid] was tested. Which “Remaining fibrin after treatment” value (Table I, CPU inhibitor alone, 8.4 μmol/kg i.v. infusion, 100% = no effect) did it give?
A: 90 ± 18.1%

Q: And the “Remaining fibrin after treatment” value (Table I, CPU inhibitor alone, 21.1 μmol/kg i.v. infusion)?
A: 37 ± 19.3%

Q: And the “Remaining fibrin after treatment” value (Table I, CPU inhibitor alone, 33.7 μmol/kg i.v. infusion)?
A: 23 ± 17.3%

Q: Nc1ccc(CC(CS)C(=O)O)cn1 (stereo not drawn) [compound A, 3-(6-amino-pyridin-3-yl)-2-mercaptomethyl-propanoic acid] was tested. Which “Remaining fibrin after treatment” value (Table II, CPU inhibitor alone, 0.20 μmol/kg i.v. infusion) did it give?
A: 100 ± 25.8%

Q: What about the “Remaining fibrin after treatment” value (Table II, CPU inhibitor alone, 0.28 μmol/kg) of the same compound?
A: 88 ± 23.2%

Q: What about the “Remaining fibrin after treatment” value (Table II, CPU inhibitor alone, 0.4 μmol/kg) of the same compound?
A: 87 ± 50.6 n = 6%

Q: What about the “Remaining fibrin after treatment” value (Table II, CPU inhibitor alone, 2.0 μmol/kg) of the same compound?
A: 49 ± 30.0 n = 7%

Q: And the “Remaining fibrin after treatment” value (Table II, CPU inhibitor alone, 4.0 μmol/kg)?
A: 15 ± 9.3 n = 4%

Q: What about the “Remaining fibrin after treatment” value (Table II, CPU inhibitor alone, 20.0 μmol/kg) of the same compound?
A: 7 ± 1.4 n = 2%

Q: And the “Remaining fibrin after treatment” value (Table III, CPU inhibitor alone, 0.20 μmol/kg)?
A: 97 ± 24.1%

Q: What about the “Remaining fibrin after treatment” value (Table III, CPU inhibitor alone, 0.28 μmol/kg) of the same compound?
A: 81 ± 24.5%

Q: With N=C(N)NCCCNC(=O)[C@@H]1CCCCN1C(=O)[C@@H](CC1CCCCC1)NCC(=O)O [inogatran, HOOC—CH2—(R)Cha-Pic-Nag-H] as the compound, how does the “Remaining fibrin after treatment” value (Table I, thrombin inhibitor alone, 2.3 μmol/kg s.c.) read?
A: 94 ± 20.2 n = 6%

Q: What about the “Remaining fibrin after treatment” value (Table I, thrombin inhibitor alone, 3.4 μmol/kg s.c.) of the same compound?
A: 72 ± 23.6 n = 6%

Q: And the “Remaining fibrin after treatment” value (Table I, thrombin inhibitor alone, 5.7 μmol/kg s.c.)?
A: 41 ± 20.3 n = 6%

Q: And the “Remaining fibrin after treatment” value (Table I, thrombin inhibitor alone, 17.2 μmol/kg s.c.)?
A: 39 ± 15.9 n = 6%

From US6974800B1, “Formulations comprising an inhibitor of carboxypeptidase U and A thrombin inhibitor” (AstraZeneca AB, priority 1999, dated 2005)
